Common to all, as to format: cell-based
The test system of test [1] is HPAC (homozygous mutant KRAS G12D human pancreatic cell line). As to the kind of experiment: KRAS 3D-Cell Proliferation Assay, HPAC (Example 503). The following applies: Homo sapiens, HPAC, 168 h, HPAC 3D culture, 7 days, CellTiter-Glo 3D; read-out: Prolif HPAC 3D ATP IC50. In a few lines: (§1)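 IC50s come from a 4-parameter Hill fit of luminescence (CellTiter-Glo 3D) normalized between DMSO (0%) and 1 μM staurosporine (100%). Cells in low-attachment 3D culture, RPMI-1640 with 10% FBS, received serial compound dilutions (0.3% DMSO) after overnight and were incubated 7 days at 37 °C.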

For test [2], the system named is H1975 (KRAS wild type human lung adenocarcinoma cell line). As to the kind of experiment: KRAS 3D-Cell Proliferation Assay, H1975 (Example 503). To be noted: Homo sapiens, NCI-H1975, 168 h, H1975 3D culture, 7 days, CellTiter-Glo 3D; read-out: Prolif H1975 3D ATP IC50. Put shortly:
as §1

Test [3] relates to PC-9 (KRAS wild type human lung adenocarcinoma cell line). Nature of the test: KRAS 3D-Cell Proliferation Assay, PC-9 (Example 503). To be noted: 168 h, PC-9 3D culture, 7 days, CellTiter-Glo 3D, read-out: Prolif PC9 3D ATP IC50. Here is the method:
Example 503: KRAS 3D-Cell Proliferation Assays. Cellular potencies of compounds are assessed by evaluating inhibition of proliferation in 3D cultures of homozygous mutant KRAS G12D human pancreatic cell lines (AsPC-1 and HPAC) as compared to a KRAS wild type human lung adenocarcinoma cell line (PC-9 and/or H1975). Cells are seeded into 384-well black round-bottom, ultra-low attachment assay plates in 50 uL cell growth medium (RPMI-1640 with 10% fetal bovine serum and 2 mM L-glutamine). After overnight incubation at 37° C. and 5% CO2, compounds solubilized in DMSO are added as dilution series to the wells in a total volume of 150 nL (0.3% DMSO final). The cells are incubated for 7 days at 37° C. and 5% CO2. Cell proliferation is quantitated by addition of 40 uL/well of CellTiter-GloÒ 3D (Promega), and the well contents are mixed 20× at high speed using liquid handling automation workstation (Bravo with 384-well head) and centrifuged at 1500 rpm for 2 minutes to eliminate bubbles. This reagent in combination with mechanical disruption releases the cellular ATP to promote activity in a luciferase-based enzyme/substrate chemiluminescent detection system. After a 30-minute incubation under ambient conditions with shaking and an additional 10 minutes without shaking, the luminescence is read on a plate reader (e.g., EnVision [PerkinElmer]). The results are normalized to percent inhibition based on the following control samples: DMSO (0% inhibition) and 1 μM staurosporine (100% inhibition). The normalized luminescence results are plotted against compound concentration, and the data are fit to a 4-parameter Hill equation to determine the IC50 values.

For test [4], the system named is AsPC-1 (homozygous mutant KRAS G12D human pancreatic cell line). As to the kind of experiment: KRAS 3D-Cell Proliferation Assay, AsPC-1 (Example 503). The following applies: Homo sapiens, ASPC1, 168 h, AsPC-1 3D culture, 7 days, CellTiter-Glo 3D; read-out: Prolif AsPC-1 3D ATP IC50. In a few lines:
as §1

With `CCc1cccc2cc(O)cc(-c3nc4c5c(nc(OCC67COC(C6)C7)nc5c3F)N3C[C@H]5CC[C@H](N5)[C@H]3[C@H](C)O4)c12` [Compound 28, 4-((5S,5aS,6S,9R)-12-((2-oxabicyclo[2.1.1]hexan-4-yl)methoxy)-1-fluoro-5-methyl-5a,6,7,8,9,10-hexahydro-5H-4-oxa-3,10a,11,13,14-pentaaza-6,9-methanonaphtho[1,8-ab]heptalen-2-yl)-5-ethylnaphthalen-2-ol], the half-maximal inhibitory concentration (IC50) in test [1] came to 0.257 µM; in test [2] it was 20 µM; in test [3] it was 11 µM; in test [4] it was 0.363 µM.

With `C[C@@H]1Oc2nc(-c3c(C(F)(F)F)ccc(N)c3F)c(F)c3nc(OC[C@@]45CCCN4C[C@H](F)C5)nc(c23)N2C[C@H]3CC[C@H](N3)[C@@H]12` [Compound 35, 2-fluoro-3-((5S,5aS,6S,9R)-1-fluoro-12-(((2R,7aS)-2-fluorotetrahydro-1H-pyrrolizin-7a(5H)-yl)methoxy)-5-methyl-5a,6,7,8,9,10-hexahydro-5H-4-oxa-3,10a,11,13,14-pentaaza-6,9-methanonaphtho[1,8-ab]heptalen-2-yl)-4-(trifluoromethyl)aniline], the 50% inhibitory concentration (IC50) in test [1] turned out to be 0.0074 µM; in test [2], 5.87 µM; in test [3] it was 9.17 µM; in test [4], 0.0106 µM.

With `C#Cc1c(F)ccc2cc(O)cc(-c3nc4c5c(nc(OC[C@@]67CCCN6C[C@H](F)C7)nc5c3F)N3C[C@H]5CC[C@H](N5)[C@H]3CO4)c12` [Compound 81, 5-Ethynyl-6-fluoro-4-((5aS,6S,9R)-1-fluoro-12-(((2R,7aS)-2-fluorotetrahydro-1H-pyrrolizin-7a(5H)-yl)methoxy)-5a,6,7,8,9,10-hexahydro-5H-4-oxa-3,10a,11,13,14-pentaaza-6,9-methanonaphtho[1,8-ab]heptalen-2-yl)naphthalen-2-ol], the IC50 in test [1] is 0.0124 µM; in test [2] it was 4.78 µM; in test [3], no less than 20 µM; in test [4], 0.0147 µM.

Turning to `C#Cc1cccc2cncc(-c3nc4c5c(nc(OC[C@@]67CCCN6C[C@H](F)C7)nc5c3F)N3C[C@H]5CC[C@H](N5)[C@H]3[C@H](C)O4)c12` [Compound 39, (5S,5aS,6S,9R)-2-(5-Ethynylisoquinolin-4-yl)-1-fluoro-12-(((2R,7aS)-2-fluorotetrahydro-1H-pyrrolizin-7a(5H)-yl)methoxy)-5-methyl-5a,6,7,8,9,10-hexahydro-5H-4-oxa-3,10a,11,13,14-pentaaza-6,9-methanonaphtho[1,8-ab]heptalene], the IC50 in test [1] is 0.0358 µM; in test [2], 3.97 µM; in test [3], no less than 20 µM; in test [4] it was 0.0558 µM.

In the case of `Cc1c(F)c(N)cc(-c2nc3c4c(nc(OC[C@@H]5CC(F)(F)CN5C)nc4c2F)N2C[C@H]4CC[C@H](N4)[C@H]2[C@H](C)O3)c1C(F)(F)F` [Compound 65, 5-((5S,5aS,6S,9R)-12-(((S)-4,4-Difluoro-1-methylpyrrolidin-2-yl)methoxy)-1-fluoro-5-methyl-5a,6,7,8,9,10-hexahydro-5H-4-oxa-3,10a,11,13,14-pentaaza-6,9-methanonaphtho[1,8-ab]heptalen-2-yl)-2-fluoro-3-methyl-4-(trifluoromethyl)aniline], the concentration for half-maximal inhibition (IC50) came out at 0.0196 µM in test [1], 7.96 µM in test [2], 7.53 µM in test [3] and 0.0643 µM in test [4].

On to `Cc1cc(-c2nc3c4c(nc(OC[C@@]56CCCN5C[C@H](F)C6)nc4c2F)N2C[C@H]4CC[C@H](N4)[C@H]2[C@H](C)O3)c(F)c(N)c1F` [Compound 18, 2,6-difluoro-3-((5S,5aS,6S,9R)-1-fluoro-12-(((2R,7aS)-2-fluorotetrahydro-1H-pyrrolizin-7a(5H)-yl)methoxy)-5-methyl-5a,6,7,8,9,10-hexahydro-5H-4-oxa-3,10a,11,13,14-pentaaza-6,9-methanonaphtho[1,8-ab]heptalen-2-yl)-5-methylaniline], for which the IC50 in test [1] came out at 5.22 µM; in test [2] it was 20 µM; in test [3] it was 7.91 µM; in test [4] it was 5.59 µM.

Consider `C#Cc1cccc2cc(O)cc(-c3nc4c5c(nc(OC[C@@]67CCCN6C[C@H](F)C7)nc5c3F)N3C[C@H]5CC[C@H](N5)[C@H]3CO4)c12` [Compound 3, 5-ethynyl-4-((5aS,6S,9R)-1-fluoro-12-(((2R,7aS)-2-fluorotetrahydro-1H-pyrrolizin-7a(5H)-yl)methoxy)-5a,6,7,8,9,10-hexahydro-5H-4-oxa-3,10a,11,13,14-pentaaza-6,9-methanonaphtho[1,8-ab]heptalen-2-yl)naphthalen-2-ol], for which the IC50 was 0.0112 µM in test [1], 0.202 µM in test [2], no less than 20 µM in test [3] and 0.00672 µM in test [4].

Regarding `CN1CCC2COc3nc(-c4cc(O)cc5cccc(F)c45)c(F)c4nc(OC[C@@]56CCCN5C[C@H](F)C6)nc(c34)N2CC1` (single isomer, unassigned) [Compound 49], the IC50 is 2.37 µM in test [3] and no less than 20 µM in test [4].

For the molecule `Fc1c(-c2cccc3cccc(Cl)c23)nc2c3c(nc(OC[C@@]45CCCN4C[C@H](F)C5)nc13)N1C[C@H]3CC[C@H](N3)[C@H]1CO2` [Compound 2, (5aS,6S,9R)-2-(8-chloronaphthalen-1-yl)-1-fluoro-12-(((2R,7aS)-2-fluorotetrahydro-1H-pyrrolizin-7a(5H)-yl)methoxy)-5a,6,7,9,10-hexahydro-5H-4-oxa-3,10a,11,13,14-pentaaza-6,9-methanonaphtho[1,8-ab]heptalene], the IC50 was found to be 4.68 µM in test [3] and 0.565 µM in test [4].

As to `C[C@@H]1Oc2nc(-c3cnccc3C(F)(F)F)c(F)c3nc(OC[C@]45CCN4CC(F)(F)C5)nc(c23)N2C[C@H]3CC[C@H](N3)[C@@H]12` [Compound 78, (5S,5aS,6S,9R)-12-(((R)-3,3-Difluoro-1-azabicyclo[3.2.0]heptan-5-yl)methoxy)-1-fluoro-5-methyl-2-(4-(trifluoromethyl)pyridin-3-yl)-5a,6,7,8,9,10-hexahydro-5H-4-oxa-3,10a,11,13,14-pentaaza-6,9-methanonaphtho[1,8-ab]heptalene], the half-maximal inhibitory concentration (IC50) in test [3] is no less than 20 µM; in test [4] it was 15.9 µM.

Regarding `C[C@@H]1Oc2nc(-c3nc(N)cc4ccccc34)c(F)c3nc(OC[C@@]45CCCN4C[C@H](F)C5)nc(c23)N2C[C@H]3CC[C@H](N3)[C@@H]12` [Compound 41, 1-((5S,5aS,6S,9R)-1-fluoro-12-(((2R,7aS)-2-fluorotetrahydro-1H-pyrrolizin-7a(5H)-yl)methoxy)-5-methyl-5a,6,7,8,9,10-hexahydro-5H-4-oxa-3,10a,11,13,14-pentaaza-6,9-methanonaphtho[1,8-ab]heptalen-2-yl)isoquinolin-3-amine], the half-inhibitory concentration (IC50) in test [3] was no less than 20 µM; in test [4], 0.98 µM.

`Cc1cc(N)nc(-c2nc3c4c(nc(OC[C@@]56CCCN5C[C@H](F)C6)nc4c2F)N2C[C@H]4CC[C@H](N4)[C@H]2CO3)c1C(F)(F)F` [Compound 44, 6-((5aS,6S,9R)-1-fluoro-12-(((2R,7aS)-2-fluorotetrahydro-1H-pyrrolizin-7a(5H)-yl)methoxy)-5a,6,7,8,9,10-hexahydro-5H-4-oxa-3,10a,11,13,14-pentaaza-6,9-methanonaphtho[1,8-ab]heptalen-2-yl)-4-methyl-5-(trifluoromethyl)pyridin-2-amine]: the figures for the concentration for half-maximal inhibition (IC50) in test [3] and in test [4] were no less than 20 µM and 0.337 µM, respectively.

The values are drawn from patent US12338256B2, “Aza-tetracyclic oxazepine compounds and uses thereof” (Genentech, Inc., priority 2022, dated 2025).
